Measured values from BindingDB's records for doi:10.1016/j.ejmech.2018.04.062 (Lindsley F. Kimball Research Institute, 2018).

Tests used:
[1] = target: Potassium voltage-gated channel subfamily H member 2 (Homo sapiens, UniProt Q12809); experiment: Inhibition of human ERG transfected in HEK293 cells assessed as reduction in channel current at -80 mV holding potential by whole-cell patch clamp method
Cytochrome P450 2C9 = Cytochrome P450 2C9 (Homo sapiens, UniProt P11712); experiment: Inhibition of human liver microsome CYP2C9 using diclofenac as substrate incubated for 20 mins by LC-MS/MS analysis
Cytochrome P450 2C9, sequence (P11712 whole entry): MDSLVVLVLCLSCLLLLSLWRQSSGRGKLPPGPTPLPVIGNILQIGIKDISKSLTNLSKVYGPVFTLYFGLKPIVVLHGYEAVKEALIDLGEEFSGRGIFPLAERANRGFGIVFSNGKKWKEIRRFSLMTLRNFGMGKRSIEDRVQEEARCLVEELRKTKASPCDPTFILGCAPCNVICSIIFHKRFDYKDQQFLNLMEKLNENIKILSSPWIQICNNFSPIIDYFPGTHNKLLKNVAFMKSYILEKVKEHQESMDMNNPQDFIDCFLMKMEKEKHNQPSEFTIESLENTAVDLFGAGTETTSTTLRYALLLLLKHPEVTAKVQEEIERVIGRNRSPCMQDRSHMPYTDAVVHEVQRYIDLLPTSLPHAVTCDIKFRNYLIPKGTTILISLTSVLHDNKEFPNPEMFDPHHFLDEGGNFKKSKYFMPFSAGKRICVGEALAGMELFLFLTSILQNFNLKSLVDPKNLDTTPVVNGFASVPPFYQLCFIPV

Cytochrome P450 1A2 = target: T1, Cytochrome P450 1A2 (Homo sapiens, UniProt P05177); experiment: Inhibition of human liver microsome CYP1A2 using phenacetin as substrate incubated for 20 mins by LC-MS/MS analysis
T1 sequence (P05177 whole entry): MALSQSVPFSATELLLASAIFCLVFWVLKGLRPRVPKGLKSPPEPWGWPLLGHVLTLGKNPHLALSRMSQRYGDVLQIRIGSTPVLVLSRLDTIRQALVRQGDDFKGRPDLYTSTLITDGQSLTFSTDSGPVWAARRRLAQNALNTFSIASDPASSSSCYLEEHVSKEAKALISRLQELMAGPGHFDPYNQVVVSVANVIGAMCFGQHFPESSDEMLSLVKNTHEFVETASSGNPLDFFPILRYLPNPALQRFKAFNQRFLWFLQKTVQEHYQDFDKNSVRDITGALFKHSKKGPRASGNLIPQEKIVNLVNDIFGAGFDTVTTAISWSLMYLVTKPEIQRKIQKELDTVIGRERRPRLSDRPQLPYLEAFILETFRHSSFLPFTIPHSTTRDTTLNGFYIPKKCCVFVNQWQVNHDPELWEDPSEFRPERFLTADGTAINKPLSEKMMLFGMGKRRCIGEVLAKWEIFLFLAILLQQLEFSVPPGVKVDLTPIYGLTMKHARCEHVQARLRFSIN

Cytochrome P450 2C8 = target: T2, Cytochrome P450 2C8 (Homo sapiens, UniProt P10632); experiment: Inhibition of human liver microsome CYP2C8 using paclitaxel as substrate incubated for 20 mins by LC-MS/MS analysis
T2 sequence (P10632 whole entry): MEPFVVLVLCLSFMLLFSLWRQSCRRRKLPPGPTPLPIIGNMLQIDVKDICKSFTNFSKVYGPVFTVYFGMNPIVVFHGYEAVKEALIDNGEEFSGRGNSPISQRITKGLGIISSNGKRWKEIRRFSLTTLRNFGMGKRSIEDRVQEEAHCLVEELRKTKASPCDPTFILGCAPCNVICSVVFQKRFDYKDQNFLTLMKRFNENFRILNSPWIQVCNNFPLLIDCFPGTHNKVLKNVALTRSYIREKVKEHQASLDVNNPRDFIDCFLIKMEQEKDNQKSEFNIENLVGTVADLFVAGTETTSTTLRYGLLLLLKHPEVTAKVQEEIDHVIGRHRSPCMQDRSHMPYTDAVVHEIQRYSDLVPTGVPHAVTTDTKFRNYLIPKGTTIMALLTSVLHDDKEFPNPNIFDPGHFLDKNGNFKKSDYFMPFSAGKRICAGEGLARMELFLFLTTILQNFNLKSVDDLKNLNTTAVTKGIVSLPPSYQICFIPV

Cytochrome P450 2D6 = Cytochrome P450 2D6 (Homo sapiens, UniProt P10635); experiment: Inhibition of human liver microsome CYP2D6 using bufuralol as substrate incubated for 20 mins by LC-MS/MS analysis
Cytochrome P450 2D6, sequence (P10635 whole entry): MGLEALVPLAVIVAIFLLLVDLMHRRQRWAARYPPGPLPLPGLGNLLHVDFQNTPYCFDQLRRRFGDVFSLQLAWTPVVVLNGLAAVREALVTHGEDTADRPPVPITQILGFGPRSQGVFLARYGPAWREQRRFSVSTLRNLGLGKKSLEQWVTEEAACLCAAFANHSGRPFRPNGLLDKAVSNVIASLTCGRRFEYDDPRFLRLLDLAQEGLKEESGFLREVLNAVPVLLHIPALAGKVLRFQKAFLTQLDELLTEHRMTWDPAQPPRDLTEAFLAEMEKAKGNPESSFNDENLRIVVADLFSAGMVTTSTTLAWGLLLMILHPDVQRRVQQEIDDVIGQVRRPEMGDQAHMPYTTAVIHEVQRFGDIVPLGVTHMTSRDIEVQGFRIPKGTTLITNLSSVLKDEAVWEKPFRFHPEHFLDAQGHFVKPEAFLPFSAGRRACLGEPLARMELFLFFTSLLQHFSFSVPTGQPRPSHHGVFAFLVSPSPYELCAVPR

Potassium voltage-gated channel subfamily H member 2, sequence (Q12809 whole entry): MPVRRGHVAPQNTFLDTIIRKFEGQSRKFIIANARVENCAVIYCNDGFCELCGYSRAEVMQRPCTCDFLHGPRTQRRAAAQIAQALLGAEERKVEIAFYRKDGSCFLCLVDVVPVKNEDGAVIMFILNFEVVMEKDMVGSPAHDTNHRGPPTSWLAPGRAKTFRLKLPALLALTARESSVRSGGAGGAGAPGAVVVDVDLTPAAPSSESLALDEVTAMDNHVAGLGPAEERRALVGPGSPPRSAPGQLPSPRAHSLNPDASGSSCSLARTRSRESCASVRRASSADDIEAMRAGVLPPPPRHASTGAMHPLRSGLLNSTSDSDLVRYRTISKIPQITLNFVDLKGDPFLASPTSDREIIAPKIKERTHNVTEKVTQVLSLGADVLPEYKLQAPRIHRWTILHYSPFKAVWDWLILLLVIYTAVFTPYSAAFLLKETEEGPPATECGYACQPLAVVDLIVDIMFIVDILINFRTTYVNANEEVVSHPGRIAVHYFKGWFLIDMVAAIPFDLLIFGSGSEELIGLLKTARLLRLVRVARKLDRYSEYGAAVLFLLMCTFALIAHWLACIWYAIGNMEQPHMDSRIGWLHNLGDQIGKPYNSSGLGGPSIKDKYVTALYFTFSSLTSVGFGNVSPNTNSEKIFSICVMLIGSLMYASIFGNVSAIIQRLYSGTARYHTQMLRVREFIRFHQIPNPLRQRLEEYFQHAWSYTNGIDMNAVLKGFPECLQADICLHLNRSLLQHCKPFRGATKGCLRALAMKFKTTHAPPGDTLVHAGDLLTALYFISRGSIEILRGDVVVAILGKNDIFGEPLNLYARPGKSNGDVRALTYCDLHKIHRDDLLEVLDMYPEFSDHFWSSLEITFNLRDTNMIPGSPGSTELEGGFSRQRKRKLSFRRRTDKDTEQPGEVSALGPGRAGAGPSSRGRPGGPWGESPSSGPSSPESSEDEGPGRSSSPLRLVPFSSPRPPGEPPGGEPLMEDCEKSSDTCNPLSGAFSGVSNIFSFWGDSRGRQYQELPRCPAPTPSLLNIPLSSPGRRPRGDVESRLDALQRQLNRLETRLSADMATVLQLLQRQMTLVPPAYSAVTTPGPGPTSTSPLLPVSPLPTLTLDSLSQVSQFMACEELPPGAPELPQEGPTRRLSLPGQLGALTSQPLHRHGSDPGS

SMILES: NC[C@H](NC(=O)c1ccc(-c2ccc(C(F)(F)F)c(F)c2)[nH]1)c1nc(CO)cs1
- IC50 [1]: 3 µM
- IC50 (Cytochrome P450 2C9): > 25 µM
- IC50 (Cytochrome P450 1A2): > 25 µM
- IC50 (Cytochrome P450 2C8): > 25 µM
- IC50 (Cytochrome P450 2D6): > 25 µM
